Results published in US20130023494A1, “MODULATORS OF THE GPR119 RECEPTOR AND THE TREATMENT OF DISORDERS RELATED THERETO” (ARENA PHARMACEUTICALS, INC., priority 2010, published 2013).

target: T1, hGPR119 (Homo sapiens, UniProt Q8TDV5); assay: HTRF cAMP assay in CHO-K1 cells stably expressing the GPR119 receptor; assay type: cell-based; conditions: 1 h room temperature
T1 construct: expressed in transfected cells
T1 sequence (Q8TDV5 2-335 limits assumed): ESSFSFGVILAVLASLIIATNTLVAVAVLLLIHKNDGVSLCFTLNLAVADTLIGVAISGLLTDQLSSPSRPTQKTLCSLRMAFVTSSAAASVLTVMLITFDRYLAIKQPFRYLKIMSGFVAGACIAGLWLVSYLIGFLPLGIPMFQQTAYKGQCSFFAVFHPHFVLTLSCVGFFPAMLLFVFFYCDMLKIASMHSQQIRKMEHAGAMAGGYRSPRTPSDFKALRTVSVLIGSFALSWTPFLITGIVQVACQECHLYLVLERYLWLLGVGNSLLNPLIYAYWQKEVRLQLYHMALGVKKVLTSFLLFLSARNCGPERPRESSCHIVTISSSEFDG
Protocol: GPR119 agonists were evaluated in an HTRF® cAMP detection assay according to the manufacturer's instructions (Cisbio, cAMP Dynamic 2 Assay Kit; #62AM4PEJ) using CHO-K1 cells stably expressing the GPR119 receptor. Briefly, CHO-K1 cells were transduced with a lentiviral vector encoding the nucleotide sequence of GPR119 (NCBI mRNA and protein reference sequences: NM_178471.2 & NP_848566, (GPR119 has also been referred to as Glucose-Dependent Insulinotropic Receptor (GDIR)). The N-terminus of the GPR119 nucleotide sequence was modified to replace the first, methionine-coding codon with a nucleotide sequence coding for a standard, nine amino acid, hemagglutinin tag. Following transduction, cells expressing the GPR119 receptor were isolated and a single clone was isolated following standard dilution-cloning procedures. On the day of the assay, cultured CHO-GPR119 cells were harvested, suspended in assay buffer and plated into 384-well assay plates (PerkinElmer Proxiplate #6008280) at a density of 2,000 cells per well. A cAMP standard curve was added to each plate. Test compounds were solubilized in DMSO, serially diluted in DMSO and then diluted in assay buffer before adding to the cells. Test compounds were evaluated in triplicate, using 10-point, 5-fold serial dilutions starting at 10 μM. The final DMSO concentration in the assay was 0.5%. Compounds and cells were incubated for 1 h at room temperature and then detection reagents were added to each well (cAMP-D2 in cell lysis buffer, followed by europium cryptate-labeled anti-cAMP antibody). Plates were then incubated at room temperature for 1 h prior to reading. Time-resolved fluorescence measurements were collected on PerkinElmer Envision™ or BMG Pherastar™ microplate readers. The compound N-(2-fluoro-4-(methylsulfonyl)phenyl)-6-(4-(3-isopropyl-1,2,4-oxadiazol-5-yl)piperidin-1-yl)-5-nitropyrimidin-4-amine was used as a positive control in each runset while assay buffer containing 0.5% DMSO was used as the negative control. The HTRF® assay was used to determine EC50 values for GPR119 agonists.

Compound	EC50 [nM]
CC(C)c1noc(N2CCC(O[C@H]3CC[C@H](Oc4cnc(C(=O)N(C)C)cn4)CC3)CC2)n1 [Compound 98, 5-((1r,4r)-4-(1-(3-isopropyl-1,2,4-oxadiazol-5-yl)piperidin-4-yloxy)cyclohexyloxy)-N,N-dimethylpyrazine-2-carboxamide]	152
C=C(C)c1noc(N2CCC(O[C@H]3CC[C@H](Oc4cnc(S(C)(=O)=O)cn4)CC3)CC2)n1 [Compound 69, 5-(4-((1r,4r)-4-(5-(methylsulfonyl)pyrazin-2-yloxy)cyclohexyloxy)piperidin-1-yl)-3-(prop-1-en-2-yl)-1,2,4-oxadiazole]	31
CC(C)(C)OC(=O)N1CCC(O[C@H]2CC[C@H](Oc3ccc(S(C)(=O)=O)cc3F)CC2)CC1 [Compound 5, tert-butyl 4-((1r,4r)-4-(2-fluoro-4-(methylsulfonyl)phenoxy)cyclohexyloxy)piperidine-1-carboxylate]	8
CC(C)OC(=O)N1CCC(O[C@H]2CC[C@H](Oc3ccc(S(C)(=O)=O)cc3F)CC2)CC1 [Compound 13, isopropyl 4-((1r,4r)-4-(2-fluoro-4-(methylsulfonyl)phenoxy)cyclohexyloxy)piperidine-1-carboxylate]	19
Cc1nc(S(C)(=O)=O)ccc1O[C@H]1CC[C@H](OC2CCN(C(=O)SC(C)C)CC2)CC1 [Compound 116, S-isopropyl 4-((1r,4r)-4-(2-methyl-6-(methylsulfonyl)pyridin-3-yloxy)cyclohexyloxy)piperidine-1-carbothioate]	5
CC(C)OC(=O)N1CCC(O[C@H]2CC[C@H](Oc3cnc(-c4ccnnc4)cn3)CC2)CC1 [Compound 77, isopropyl 4-((1r,4r)-4-(5-(pyridazin-4-yl)pyrazin-2-yloxy)cyclohexyloxy)-piperidine-1-carboxylate]	281
CC(C)(C)OC(=O)CN1CCC(O[C@H]2CC[C@H](Oc3ccc(S(C)(=O)=O)cc3)CC2)CC1 [Compound 35, tert-butyl 2-(4-((1r,4r)-4-(4-(methylsulfonyl)phenoxy)cyclohexyloxy)piperidin-1-yl)acetate]	426
CCC(F)(F)C(=O)N1CCC(O[C@H]2CC[C@H](Oc3ccc(S(C)(=O)=O)cc3)CC2)CC1 [Compound 48, 2,2-difluoro-1-(4-((1r,4r)-4-(4-(methylsulfonyl)phenoxy)cyclohexyloxy)piperidin-1-yl)butan-1-one]	11
CC(C)(C)OC(=O)N1CCC(O[C@H]2CC[C@@H](Oc3ccc(S(C)(=O)=O)cc3)CC2)CC1 [Compound 1, tert-butyl 4-((1s,4s)-4-(4-(methylsulfonyl)phenoxy)cyclohexyloxy)piperidine-1-carboxylate]	266
